According to US20230233576A1, “ECLITASERTIB FOR USE IN TREATING CONDITIONS INVOLVING SYSTEMIC HYPERINFLAMMATORY RESPONSE” (priority 2020, published 2023):

Test system: laboratory markers of severe COVID-19 (D-dimer, leukocytes, lymphocytes, neutrophil to lymphocyte ratio, ferritin, LDH)
Experiment: Phase 1b severe COVID-19 study: laboratory markers of severe COVID-19
Format: in vivo, human
Settings: for D-Dimer relative change from baseline, RIPK1 Inhibitor vs placebo, point estimate / Ferritin relative change from baseline, RIPK1 Inhibitor vs placebo, point estimate / Lactate Dehydrogenase relative change from baseline, RIPK1 Inhibitor vs placebo, point estimate / Leukocytes relative change from baseline, RIPK1 Inhibitor vs placebo, point estimate / Lymphocytes relative change from baseline, RIPK1 Inhibitor vs placebo, point estimate / Neutrophils/Lymphocytes (RATIO) relative change from baseline, RIPK1 Inhibitor vs placebo, point estimate: MMRM; for D-Dimer relative change from baseline, RIPK1 Inhibitor vs placebo, point estimate / Ferritin relative change from baseline, RIPK1 Inhibitor vs placebo, point estimate / Lactate Dehydrogenase relative change from baseline, RIPK1 Inhibitor vs placebo, point estimate / Leukocytes relative change from baseline, RIPK1 Inhibitor vs placebo, point estimate / Lymphocytes relative change from baseline, RIPK1 Inhibitor vs placebo, point estimate / Neutrophils/Lymphocytes (RATIO) relative change from baseline, RIPK1 Inhibitor vs placebo, point estimate / D-Dimer: point estimate of the relative change from baseline (geometric mean) / D-Dimer: point estimate of the relative change from baseline displayed as percent change / Ferritin: point estimate of the relative change from baseline (geometric mean) / Ferritin: point estimate of the relative change from baseline displayed as percent change / Lactate Dehydrogenase: point estimate of the relative change from baseline (geometric mean) / Lactate Dehydrogenase: point estimate of the relative change from baseline displayed as percent change / Leukocytes: point estimate of the relative change from baseline (geometric mean) / Leukocytes: point estimate of the relative change from baseline displayed as percent change / Lymphocytes: point estimate of the relative change from baseline (geometric mean) / Lymphocytes: point estimate of the relative change from baseline displayed as percent change / Neutrophils/Lymphocytes (RATIO): point estimate of the relative change from baseline (geometric mean) / Neutrophils/Lymphocytes (RATIO): point estimate of the relative change from baseline displayed as percent change: LOCF, Efficacy population
Text: For clinical assessment, the variables associated with endpoints were: • main inflammatory marker CRP • Oxygenation saturation and oxygen delivery (e.g. SpO2, SpO2/FiO2), Laboratory markers of severe COVID-19 including D-dimer, lactate dehydrogenase (LDH), ferritin and hematology laboratory (white blood cell count, differential blood lymphocytes, neutrophil to lymphocyte ratio) • Clinical status of participant (7-point ordinal scale) • Thrombolytic and vasopressor treatments
Other secondary clinical assessment endpoints included: • Number of Days without need for oxygen support and alive (oxygen saturation≥92% breathing room air) up to Day 28 • Numbers of Ventilator-free days and alive up to Day 28 • Change from baseline in markers of inflammation (White blood cell count, differential blood lymphocytes, neutrophil to lymphocyte ratio, IL-6) and D-Dimer at Day 7 and EOT • Incidence of Deaths up to Day 28 • Percentage of participants receiving thrombolytic treatment up to Day 28 • Percentage of participants receiving vasopressor treatment up to Day 28 • Numbers of Respiratory Failure-Free Days (RFFD) and alive up to Day 28
Exploratory clinical assessments endpoints included: • Change from baseline in ferritin and LDH at Day 7 and EOT • Proportion of participants per category of the 7-point clinical scale at EOT • Time to improvement by 2 points in category of 7-point clinical scale • Quantitative SARS-COV-2 viral load in blood at baseline and on Day 3, 5, 7 and EOT
The relative changes from baseline in laboratory markers of severe COVID-19 were analyzed for the two treatment groups and for the treatment comparison of RIPK1 Inhibitor versus placebo, at Day 7 and EOT (Table 22, Table 23, Table 24). See also FIGS. 14, 15, 16, 17, 18, and 19.

CN1C(=O)[C@@H](NC(=O)c2nnc(Cc3ccccc3)[nH]2)COc2cccnc21 [RIPK1 Inhibitor, (S)-5-benzyl-N-(5-methyl-4-oxo-2,3,4,5-tetrahydropyrido[3,2-b][1,4]oxazepin-3-yl)-4H-1,2,4-triazole-3-carboxamide]
D-Dimer relative change from baseline, RIPK1 Inhibitor vs placebo, point estimate (600 mg, Day 7): 0.88
Ferritin relative change from baseline, RIPK1 Inhibitor vs placebo, point estimate (600 mg, Day 7): 0.96
Lactate Dehydrogenase relative change from baseline, RIPK1 Inhibitor vs placebo, point estimate (600 mg, Day 7): 0.80
Leukocytes relative change from baseline, RIPK1 Inhibitor vs placebo, point estimate (600 mg, Day 7): 0.87
Lymphocytes relative change from baseline, RIPK1 Inhibitor vs placebo, point estimate (600 mg, Day 7): 1.02
Neutrophils/Lymphocytes (RATIO) relative change from baseline, RIPK1 Inhibitor vs placebo, point estimate (600 mg, Day 7): 0.65
difference with RIPK1 Inhibitor versus placebo for ferritin (600 mg, Day 7 and EOT): No differences
D-Dimer relative change from baseline, RIPK1 Inhibitor vs placebo, point estimate (600 mg, EOT): 1.07
Ferritin relative change from baseline, RIPK1 Inhibitor vs placebo, point estimate (600 mg, EOT): 0.98
Lactate Dehydrogenase relative change from baseline, RIPK1 Inhibitor vs placebo, point estimate (600 mg, EOT): 0.85
Leukocytes relative change from baseline, RIPK1 Inhibitor vs placebo, point estimate (600 mg, EOT): 1.03
Lymphocytes relative change from baseline, RIPK1 Inhibitor vs placebo, point estimate (600 mg, EOT): 1.03
Neutrophils/Lymphocytes (RATIO) relative change from baseline, RIPK1 Inhibitor vs placebo, point estimate (600 mg, EOT): 0.67
D-Dimer: point estimate of the relative change from baseline (geometric mean) (Day 03): 1.00
D-Dimer: point estimate of the relative change from baseline displayed as percent change (Day 03): −0.31%
Ferritin: point estimate of the relative change from baseline (geometric mean) (Day 03): 3.43
Ferritin: point estimate of the relative change from baseline displayed as percent change (Day 03): 242.68%
Lactate Dehydrogenase: point estimate of the relative change from baseline (geometric mean) (Day 03): 2.42
Lactate Dehydrogenase: point estimate of the relative change from baseline displayed as percent change (Day 03): 141.68%
Leukocytes: point estimate of the relative change from baseline (geometric mean) (Day 03): 6.10
Leukocytes: point estimate of the relative change from baseline displayed as percent change (Day 03): 509.93%
Lymphocytes: point estimate of the relative change from baseline (geometric mean) (Day 03): 1.35
Lymphocytes: point estimate of the relative change from baseline displayed as percent change (Day 03): 34.70%
Neutrophils/Lymphocytes (RATIO): point estimate of the relative change from baseline (geometric mean) (Day 03): 2.01
Neutrophils/Lymphocytes (RATIO): point estimate of the relative change from baseline displayed as percent change (Day 03): 100.80%
D-Dimer: point estimate of the relative change from baseline (geometric mean) (Day 05): 1.04
D-Dimer: point estimate of the relative change from baseline displayed as percent change (Day 05): 4.10%
Ferritin: point estimate of the relative change from baseline (geometric mean) (Day 05): 2.91
Ferritin: point estimate of the relative change from baseline displayed as percent change (Day 05): 191.34%
Lactate Dehydrogenase: point estimate of the relative change from baseline (geometric mean) (Day 05): 2.23
Lactate Dehydrogenase: point estimate of the relative change from baseline displayed as percent change (Day 05): 122.59%
Leukocytes: point estimate of the relative change from baseline (geometric mean) (Day 05): 6.14
Leukocytes: point estimate of the relative change from baseline displayed as percent change (Day 05): 513.77%
Lymphocytes: point estimate of the relative change from baseline (geometric mean) (Day 05): 1.43
Lymphocytes: point estimate of the relative change from baseline displayed as percent change (Day 05): 42.51%
Neutrophils/Lymphocytes (RATIO): point estimate of the relative change from baseline (geometric mean) (Day 05): 1.89
Neutrophils/Lymphocytes (RATIO): point estimate of the relative change from baseline displayed as percent change (Day 05): 89.49%
D-Dimer: point estimate of the relative change from baseline (geometric mean) (Day 07): 0.96
D-Dimer: point estimate of the relative change from baseline displayed as percent change (Day 07): −3.52%
Ferritin: point estimate of the relative change from baseline (geometric mean) (Day 07): 2.80
Ferritin: point estimate of the relative change from baseline displayed as percent change (Day 07): 179.61%
Lactate Dehydrogenase: point estimate of the relative change from baseline (geometric mean) (Day 07): 2.10
Lactate Dehydrogenase: point estimate of the relative change from baseline displayed as percent change (Day 07): 110.26%
Leukocytes: point estimate of the relative change from baseline (geometric mean) (Day 07): 6.15
Leukocytes: point estimate of the relative change from baseline displayed as percent change (Day 07): 514.60%
Lymphocytes: point estimate of the relative change from baseline (geometric mean) (Day 07): 1.52
Lymphocytes: point estimate of the relative change from baseline displayed as percent change (Day 07): 51.69%
Neutrophils/Lymphocytes (RATIO): point estimate of the relative change from baseline (geometric mean) (Day 07): 1.74
Neutrophils/Lymphocytes (RATIO): point estimate of the relative change from baseline displayed as percent change (Day 07): 74.47%
D-Dimer: point estimate of the relative change from baseline (geometric mean) (Day 15): 0.96
D-Dimer: point estimate of the relative change from baseline displayed as percent change (Day 15): −3.71%
Ferritin: point estimate of the relative change from baseline (geometric mean) (Day 15): 2.66
Ferritin: point estimate of the relative change from baseline displayed as percent change (Day 15): 166.34%
Lactate Dehydrogenase: point estimate of the relative change from baseline (geometric mean) (Day 15): 2.05
Lactate Dehydrogenase: point estimate of the relative change from baseline displayed as percent change (Day 15): 104.58%
Leukocytes: point estimate of the relative change from baseline (geometric mean) (Day 15): 6.60
Leukocytes: point estimate of the relative change from baseline displayed as percent change (Day 15): 560.21%
Lymphocytes: point estimate of the relative change from baseline (geometric mean) (Day 15): 1.63
Lymphocytes: point estimate of the relative change from baseline displayed as percent change (Day 15): 63.48%
Neutrophils/Lymphocytes (RATIO): point estimate of the relative change from baseline (geometric mean) (Day 15): 1.66
Neutrophils/Lymphocytes (RATIO): point estimate of the relative change from baseline displayed as percent change (Day 15): 65.55%
